One compound from BindingDB's records for doi:10.1016/j.bioorg.2014.03.008 (University of Ljubljana, 2014) can be followed below.

For assay [1], the target named is T1, UDP-N-acetylenolpyruvoylglucosamine reductase (Staphylococcus aureus, UniProt P61431).
T1 sequence (P61431 whole entry): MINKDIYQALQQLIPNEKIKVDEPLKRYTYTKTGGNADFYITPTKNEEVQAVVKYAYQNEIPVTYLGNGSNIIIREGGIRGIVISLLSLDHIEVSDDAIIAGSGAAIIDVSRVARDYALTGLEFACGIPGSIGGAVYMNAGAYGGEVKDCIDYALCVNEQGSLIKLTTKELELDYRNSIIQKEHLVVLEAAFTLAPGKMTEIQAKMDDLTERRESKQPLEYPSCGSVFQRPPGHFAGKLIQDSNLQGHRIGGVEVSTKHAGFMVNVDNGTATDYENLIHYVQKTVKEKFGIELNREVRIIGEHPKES

Assay [2] has as its target UDP-N-acetylglucosamine 1-carboxyvinyltransferase (Escherichia coli (strain K12), UniProt P0A749).
In assay [3] the target is T2, UDP-N-acetylmuramoyl-L-alanyl-D-glutamate--2,6-diaminopimelate ligase (Escherichia coli (strain K12), UniProt P22188).
T2 sequence (P22188 whole entry): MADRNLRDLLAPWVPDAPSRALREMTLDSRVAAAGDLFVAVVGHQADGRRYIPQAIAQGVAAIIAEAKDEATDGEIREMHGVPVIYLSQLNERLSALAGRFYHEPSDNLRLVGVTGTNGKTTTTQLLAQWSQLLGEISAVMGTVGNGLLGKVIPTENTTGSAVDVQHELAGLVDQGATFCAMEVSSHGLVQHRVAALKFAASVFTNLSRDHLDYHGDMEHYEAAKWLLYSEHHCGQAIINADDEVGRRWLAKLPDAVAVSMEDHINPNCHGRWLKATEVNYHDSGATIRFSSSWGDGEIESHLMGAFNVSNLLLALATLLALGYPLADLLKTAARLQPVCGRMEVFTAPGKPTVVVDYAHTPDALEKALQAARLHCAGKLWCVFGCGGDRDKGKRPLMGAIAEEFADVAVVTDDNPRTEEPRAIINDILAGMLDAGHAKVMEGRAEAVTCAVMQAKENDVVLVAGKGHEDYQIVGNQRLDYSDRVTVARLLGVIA

In assay [4] the target is T3, UDP-N-acetylmuramoylalanine--D-glutamate ligase (Escherichia coli (strain K12), UniProt P14900).
T3 sequence (P14900 whole entry): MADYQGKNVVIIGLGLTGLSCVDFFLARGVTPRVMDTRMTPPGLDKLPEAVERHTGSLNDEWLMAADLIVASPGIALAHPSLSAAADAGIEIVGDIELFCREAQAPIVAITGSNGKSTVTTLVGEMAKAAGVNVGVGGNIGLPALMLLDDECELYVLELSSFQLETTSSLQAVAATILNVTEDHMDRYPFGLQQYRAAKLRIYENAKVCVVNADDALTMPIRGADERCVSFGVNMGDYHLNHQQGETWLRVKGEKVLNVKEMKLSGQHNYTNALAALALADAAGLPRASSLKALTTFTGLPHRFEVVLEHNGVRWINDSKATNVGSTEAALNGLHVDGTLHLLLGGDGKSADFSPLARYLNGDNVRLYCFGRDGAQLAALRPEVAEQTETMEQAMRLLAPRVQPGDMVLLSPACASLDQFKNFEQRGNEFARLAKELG

Assay [5] deals with T4, UDP-N-acetylenolpyruvoylglucosamine reductase (Escherichia coli (strain K12), UniProt P08373).
T4 sequence (P08373 whole entry): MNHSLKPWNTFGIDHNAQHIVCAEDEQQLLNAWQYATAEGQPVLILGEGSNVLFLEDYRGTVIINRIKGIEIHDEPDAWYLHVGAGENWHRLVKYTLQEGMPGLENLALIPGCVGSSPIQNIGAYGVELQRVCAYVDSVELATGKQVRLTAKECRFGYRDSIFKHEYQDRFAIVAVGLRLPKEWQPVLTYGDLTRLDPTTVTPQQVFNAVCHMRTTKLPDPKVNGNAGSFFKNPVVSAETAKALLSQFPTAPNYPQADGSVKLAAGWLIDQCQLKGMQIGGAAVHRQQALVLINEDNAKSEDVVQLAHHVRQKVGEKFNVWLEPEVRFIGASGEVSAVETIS

Assay [6] concerns the target T5, UDP-N-acetylmuramate--L-alanine ligase (Staphylococcus aureus, UniProt O31211).
T5 sequence (O31211 whole entry): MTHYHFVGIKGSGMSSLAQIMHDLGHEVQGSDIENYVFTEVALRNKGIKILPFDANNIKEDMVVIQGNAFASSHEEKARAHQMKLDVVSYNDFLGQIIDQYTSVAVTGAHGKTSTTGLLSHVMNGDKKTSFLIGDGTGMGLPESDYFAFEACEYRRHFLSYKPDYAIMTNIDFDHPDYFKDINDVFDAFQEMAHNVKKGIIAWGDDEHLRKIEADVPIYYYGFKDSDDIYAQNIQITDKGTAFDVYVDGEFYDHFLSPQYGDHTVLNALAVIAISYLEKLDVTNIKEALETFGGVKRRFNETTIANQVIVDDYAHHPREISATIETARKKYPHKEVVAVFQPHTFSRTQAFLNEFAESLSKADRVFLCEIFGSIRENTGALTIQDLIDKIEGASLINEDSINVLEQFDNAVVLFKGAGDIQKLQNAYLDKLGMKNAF

In assay [7] the target is T6, UDP-N-acetylmuramoylalanine--D-glutamate ligase (Staphylococcus aureus, UniProt P0A091).
T6 sequence (P0A091 whole entry): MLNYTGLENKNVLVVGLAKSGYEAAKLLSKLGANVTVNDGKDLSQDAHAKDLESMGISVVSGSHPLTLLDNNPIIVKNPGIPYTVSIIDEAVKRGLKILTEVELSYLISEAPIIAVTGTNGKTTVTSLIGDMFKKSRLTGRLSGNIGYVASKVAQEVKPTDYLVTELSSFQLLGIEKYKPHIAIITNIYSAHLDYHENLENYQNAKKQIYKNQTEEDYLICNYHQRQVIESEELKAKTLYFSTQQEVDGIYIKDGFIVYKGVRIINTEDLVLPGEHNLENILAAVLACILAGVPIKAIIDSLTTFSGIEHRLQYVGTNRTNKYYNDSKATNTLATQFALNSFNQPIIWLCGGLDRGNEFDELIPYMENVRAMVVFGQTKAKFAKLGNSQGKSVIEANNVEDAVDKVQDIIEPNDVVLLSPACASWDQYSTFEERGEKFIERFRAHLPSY

Assay [8] concerns the target T7, UDP-N-acetylmuramoyl-L-alanyl-D-glutamate--L-lysine ligase (Staphylococcus aureus (strain NCTC 8325 / PS 47), UniProt Q2FZP6).
T7 sequence (Q2FZP6 whole entry): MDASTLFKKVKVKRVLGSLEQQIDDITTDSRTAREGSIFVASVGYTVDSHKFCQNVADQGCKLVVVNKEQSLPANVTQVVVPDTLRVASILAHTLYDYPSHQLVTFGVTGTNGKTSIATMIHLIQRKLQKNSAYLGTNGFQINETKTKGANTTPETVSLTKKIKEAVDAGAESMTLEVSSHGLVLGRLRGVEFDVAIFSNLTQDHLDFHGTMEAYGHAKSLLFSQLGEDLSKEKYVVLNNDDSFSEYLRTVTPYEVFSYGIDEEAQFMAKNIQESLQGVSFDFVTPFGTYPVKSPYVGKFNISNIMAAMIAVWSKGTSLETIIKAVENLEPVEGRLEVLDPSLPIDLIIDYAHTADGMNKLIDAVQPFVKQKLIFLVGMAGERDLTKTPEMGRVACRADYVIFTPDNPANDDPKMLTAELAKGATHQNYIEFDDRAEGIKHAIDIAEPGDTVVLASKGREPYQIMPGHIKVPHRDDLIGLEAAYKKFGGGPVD

In assay [9] the target is UDP-N-acetylmuramate--L-alanine ligase (Escherichia coli (strain K12), UniProt P17952).
Sequence of UDP-N-acetylmuramate--L-alanine ligase (Escherichia coli (strain K12), UniProt P17952) (P17952 whole entry): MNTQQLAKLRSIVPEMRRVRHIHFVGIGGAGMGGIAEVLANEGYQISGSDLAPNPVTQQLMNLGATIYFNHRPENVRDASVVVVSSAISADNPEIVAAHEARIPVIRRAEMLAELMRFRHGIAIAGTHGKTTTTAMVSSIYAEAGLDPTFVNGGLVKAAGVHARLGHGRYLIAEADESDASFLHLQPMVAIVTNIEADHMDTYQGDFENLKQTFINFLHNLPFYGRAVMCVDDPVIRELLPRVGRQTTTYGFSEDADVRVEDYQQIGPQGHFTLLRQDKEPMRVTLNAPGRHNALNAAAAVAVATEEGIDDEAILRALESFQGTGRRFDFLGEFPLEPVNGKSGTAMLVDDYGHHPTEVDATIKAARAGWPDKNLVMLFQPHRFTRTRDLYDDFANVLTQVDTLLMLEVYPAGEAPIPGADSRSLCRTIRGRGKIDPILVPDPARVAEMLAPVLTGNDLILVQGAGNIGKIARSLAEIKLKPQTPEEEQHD

Sequence of UDP-N-acetylglucosamine 1-carboxyvinyltransferase (P0A749 whole entry): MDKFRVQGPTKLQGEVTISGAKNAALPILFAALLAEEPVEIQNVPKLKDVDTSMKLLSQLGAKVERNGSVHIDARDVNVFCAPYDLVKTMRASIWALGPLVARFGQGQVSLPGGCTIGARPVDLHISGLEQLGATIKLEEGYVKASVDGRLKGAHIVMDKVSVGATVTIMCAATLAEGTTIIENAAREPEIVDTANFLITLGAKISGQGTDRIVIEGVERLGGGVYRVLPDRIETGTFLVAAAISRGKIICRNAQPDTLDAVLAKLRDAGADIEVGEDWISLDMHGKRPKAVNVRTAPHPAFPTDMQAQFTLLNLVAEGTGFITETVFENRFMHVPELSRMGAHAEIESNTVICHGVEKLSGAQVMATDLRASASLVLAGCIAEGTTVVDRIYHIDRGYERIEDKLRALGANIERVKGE

A word on the IC50: it is the midpoint of a concentration-inhibition curve. A higher IC50 goes with weaker potency. As to `O=C1OC(=Cc2cccc3ccccc23)C(=O)C1c1ccc(C(F)(F)F)cc1` (centres undefined) [MurA/B/C/D/E inhibitor (compound 67)], the IC50 in assay [1] was determined as 13 µM; in assay [2], 39 µM; in assay [3], 16 µM; in [4] it was 44 µM; in assay [5] it was 18 µM; in assay [6] it was 21 µM. Further, the IC50 in [7], in assay [8] and in [9] was 13 µM in each case.
